Molecular target: T1, HIV-1 reverse transcriptase (HIV-1逆转录酶) (Human immunodeficiency virus type 1 group M subtype B, UniProt P03366)
T1 construct: HIV-1逆转录酶HIV-1 RT为基因工程重组酶
Assay: HIV-1 RT activity assay (oligo(dT)15-coated 96-well plate, poly(A) template, biotin-11-dUTP / SA-ALP / PNPP, 405 nm)
Assay type: biochemical
Details: relative to nevirapine (NVP); range stated for the six compounds together

Row | Compound | activity higher than that of nevirapine (NVP)
1 | CCOCn1c(Cc2ccccc2)c(I)c(=O)[nH]c1=O [化合物8, 1-乙氧甲基-5-碘-6-苄基尿嘧啶] | 3.6-627 fold
2 | CCOCn1c(Cc2ccccc2)c(N(C)C)c(=O)[nH]c1=O [化合物10, 1-乙氧甲基-5-N,N-二甲基氨基-6-苄基尿嘧啶] | 3.6-627 fold
3 | CCOCn1c(Cc2ccccc2)c(Br)c(=O)[nH]c1=O [化合物9, 1-乙氧甲基-5-溴-6-苄基尿嘧啶] | 3.6-627 fold
4 | CN(C)c1c(Cc2ccccc2)n(COCc2ccccc2)c(=O)[nH]c1=O [化合物7, 1-苄氧甲基-5-N,N-二甲基氨基-6-苄基尿嘧啶] | 3.6-627 fold
5 | O=c1[nH]c(=O)n(COCc2ccccc2)c(Cc2ccccc2)c1Br [化合物6, 1-苄氧甲基-5-溴-6-苄基尿嘧啶] | 3.6-627 fold
6 | O=c1[nH]c(=O)n(COCc2ccccc2)c(Cc2ccccc2)c1I [化合物5, 1-苄氧甲基-5-碘-6-苄基尿嘧啶] | 3.6-627 fold

Reference: patent publication CN101016265A, “一种新型hiv-1逆转录酶抑制剂的制备及其用途” (Capital Medical University, priority 2007, dated 2007)
